Measurements: publication PMC12658632, “Discovery of Sesamolin as a Potential Anti-Helicobacter pylori Agent by Virtual Screening against the Essential Response Regulator HsrA with In Vitro Evaluation” (ACS Omega, 2025)
Where two headings read alike, the source gives them in different places.

How the values were obtained:
HsrA = target: T1, HsrA (Helicobacter pylori, UniProt O25684); test: SPR (Biacore T200, […] model); also EMSA inhibition of HsrA-DNA binding
T1 construct: gene HP_1043

[1] = target: T2, HsrA (Helicobacter pylori (strain of the recombinant protein not stated)) (UniProt O25684); test: EMSA; settings: EMSA binding buffer (Beyotime GS005, composition and pH not stated), 25 uL, 4 uM HsrA, 50 ng each DNA, 25 C 30 min; 5% native PAGE, 0.5x TBE
T2 sequence: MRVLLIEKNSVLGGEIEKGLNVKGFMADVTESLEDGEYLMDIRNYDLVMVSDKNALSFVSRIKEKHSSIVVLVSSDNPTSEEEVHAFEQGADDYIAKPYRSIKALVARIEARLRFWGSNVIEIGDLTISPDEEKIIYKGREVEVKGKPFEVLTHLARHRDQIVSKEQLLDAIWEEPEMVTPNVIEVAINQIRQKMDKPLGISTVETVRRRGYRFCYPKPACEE

T1 sequence (O25684 entry or part of it): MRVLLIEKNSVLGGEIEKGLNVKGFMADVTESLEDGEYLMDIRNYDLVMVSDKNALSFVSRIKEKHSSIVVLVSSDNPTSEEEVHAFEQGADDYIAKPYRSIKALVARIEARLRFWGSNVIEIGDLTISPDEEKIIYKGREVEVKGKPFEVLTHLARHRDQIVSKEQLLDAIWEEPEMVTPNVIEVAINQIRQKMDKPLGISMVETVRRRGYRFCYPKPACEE

c1cc2c(cc1O[C@H]1OC[C@H]3[C@@H]1CO[C@@H]3c1ccc3c(c1)OCO3)OCO2 [compound 3, Sesamolin] gave a Kd (HsrA) of 17.1 nM.

c1c2c(cc3c1OCO3)-c1cc3ccc4c(c3c[n+]1CC2)OCO4 [compound 6, Coptisine] gave a Kd (HsrA; read-out: Kd) of 400 nM.

With “GCCAAAACGCCTAAAGCCATGATAACCTTTTTCATCGTTTGTCTCCTCTACTTATCAAAATGATCTTAAAATGATACAATTACAAGTTTAAGTTTTGCTTAAAAATGAAGTGAAAATGAGAGAAATAAATATGATTTTATACATTCATATCCCCTTTTGTGAAAATAAATGCGGTTATTGCGCTTTCAA (double strand) [hp1227 promoter probe]” the binding [1] was “binds”.
